Laboratory results published in patent US20240409585A1, “MACROCYCLIC IMMUNOMODULATORS” (priority 2021, published 2024).
Numbered stars: 1 amine (or outer) side, 2 acyl side, 3 side chain; on linkers, the order of the positions; unused ones are H or OH. Bridge positions count the residues as written; N and C are the ends. Square brackets hold non-standard residues; d marks the D form. Peptide text beside a SMILES is read from it. * marks the point of attachment. Bip(4'-NHAc) = CC(=O)Nc1ccc(-c2ccc(C[C@H](N)C(=O)O)cc2)cc1; Phe(3-CH2NH2) = O=C([C@H](Cc1cccc(CN[*:3])c1)N[*:1])[*:2]; X20 = CC(NC[C@H](N[*:1])C(=O)[*:2])=C1C(=O)CC(C)(C)CC1=O; X17 = Nc1ccc(-c2cccc(C[C@H](N[*:1])C(=O)[*:2])c2)cn1; Phe(3-CF3) = N[C@@H](Cc1cccc(C(F)(F)F)c1)C(=O)O; Ala(morpholin-4-yl) = N[C@@H](CN1CCOCC1)C(=O)O; Phe(4-CONH2) = NC(=O)c1ccc(C[C@H](N)C(=O)O)cc1; Phe(4-COOH) = N[C@@H](Cc1ccc(C(=O)O)cc1)C(=O)O; Bip = N[C@@H](Cc1ccc(-c2ccccc2)cc1)C(=O)O; Abu(3R-NH2) = C[C@@H](N)[C@H](N)C(=O)O; Phe(3-Me) = Cc1cccc(C[C@H](N)C(=O)O)c1; Abu(3S-NH2) = C[C@H](N)[C@H](N)C(=O)O; Phe(2-F) = N[C@@H](Cc1ccccc1F)C(=O)O; Glutaryl = O=C(CCCC(=O)[*:2])[*:1]; hPhe = N[C@@H](CCc1ccccc1)C(=O)O; Cha = N[C@@H](CC1CCCCC1)C(=O)O; Suc = O=C(CCC(=O)[*:2])[*:1]; Carboxymethyl = O=C(O)C*; NMeA = CN[C@@H](C)C(=O)O; Orn = NCCC[C@H](N)C(=O)O; Dab = NCC[C@H](N)C(=O)O; Dap = NC[C@H](N)C(=O)O

These compounds were tested against T1, Alexa fluor-647 labeled human PD-L1-Ig binding to Jurkat cell line over-expressing human PD-1 (Homo sapiens, UniProt Q15116) (assay: Jurkat-PD-1 Cell Binding High-Content Screening Assay (CBA): Method 3 (Alexa fluor-647 labeled PD-L1-Ig)). Details: Jurkat-PD-1 cells, Alexa fluor-647 labeled PD-L1-Ig 177 nM; head μM; read-out: CBA Method 3 μM.
T1 construct: expressed in transfected cells; host or cells: Jurkat
T1 sequence (Q15116 25-288): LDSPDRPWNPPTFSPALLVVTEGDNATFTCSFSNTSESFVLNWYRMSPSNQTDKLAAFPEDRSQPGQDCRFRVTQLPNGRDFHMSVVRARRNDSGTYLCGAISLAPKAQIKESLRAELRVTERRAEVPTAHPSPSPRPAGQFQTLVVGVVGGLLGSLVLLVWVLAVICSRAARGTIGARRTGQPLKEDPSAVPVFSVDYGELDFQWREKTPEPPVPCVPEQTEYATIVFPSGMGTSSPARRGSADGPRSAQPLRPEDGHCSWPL
Summary of the method: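 Readout by high-content imaging of PFA-fixed, Hoechst-stained cells after 1 h with 177 nM (final) Alexa fluor-647 PD-L1-Ig. Compound was added first to hPD-1 Jurkat cells in RPMI plus 10% FCS for 2 h at 37 °C.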
In the case of `CC(C)C[C@H]1NC(=O)[C@H](C)N(C)C(=O)[C@H](CCC(N)=O)NC(=O)[C@H](Cc2ccc(-c3ccccc3)cc2)NC(=O)[C@H](CCc2ccccc2)NC(=O)[C@H](Cc2cccc(C(F)(F)F)c2)NC(=O)[C@H](CC(=O)O)NC(=O)[C@H](CCC(N)=O)NC(=O)[C@H](CC2CCCCC2)NC(=O)CSC[C@@H](C(=O)N[C@@H](CCN)C(N)=O)NC(=O)[C@H](CCCN)NC(=O)[C@H](C(C)C)NC(=O)[C@H](CC2CCCCC2)NC(=O)[C@H](CCN)NC1=O` [Example 5246] ({CH2CO}-[Cha]QD[Phe(3-CF3)][hPhe][Bip]Q[NMeA][dL][Dab][Cha]V[Orn]C[Dab]-NH2; thioether N-14), the IC50 was 0.42 µM.
In the case of `Cc1cccc(C[C@@H]2NC(=O)[C@H](CC(=O)O)NC(=O)[C@H](Cc3ccc(OCC(=O)O)cc3)NC(=O)[C@H](CC3CCCCC3)NC(=O)CSC[C@@H](C(=O)N[C@@H](CCN)C(N)=O)NC(=O)[C@H](CCCN)NC(=O)[C@H](C(C)C)NC(=O)[C@H](Cc3cccc(CN)c3)NC(=O)[C@H](CCN)NC(=O)[C@@H](CC(C)C)NC(=O)[C@H](C)N(C)C(=O)[C@H](CCC(N)=O)NC(=O)[C@H](Cc3ccc(-c4ccccc4)cc3)NC(=O)[C@H](Cc3ccc(C(=O)O)cc3)NC2=O)c1` [Example 5188] ({CH2CO}-[Cha]Y(Carboxymethyl)D[Phe(3-Me)][Phe(4-COOH)][Bip]Q[NMeA][dL][Dab][Phe(3-CH2NH2)]V[Orn]C[Dab]-NH2; thioether N-14), the IC50 was 0.05 µM.
Compound `CC(NC[C@@H]1NC(=O)[C@H](Cc2ccc(C(=O)O)cc2)NC(=O)[C@H](CN2CCOCC2)NC(=O)CSC[C@@H](C(=O)N[C@@H](CCN)C(N)=O)NC(=O)[C@H](CCCN)NC(=O)[C@H](C(C)C)NC(=O)[C@H](CC2CCCCC2)NC(=O)[C@H](CCN)NC(=O)[C@@H](CC(C)C)NC(=O)[C@H](C)N(C)C(=O)[C@H](CCC(N)=O)NC(=O)[C@H](Cc2ccc(-c3ccccc3)cc2)NC(=O)[C@H](Cc2ccc(C(=O)O)cc2)NC(=O)[C@H](Cc2cccc(C(F)(F)F)c2)NC1=O)=C1C(=O)CC(C)(C)CC1=O` [Example 5105] ({CH2CO}-[Ala(morpholin-4-yl)][Phe(4-COOH)][X20][Phe(3-CF3)][Phe(4-COOH)][Bip]Q[NMeA][dL][Dab][Cha]V[Orn]C[Dab]-NH2; thioether N-14) has an IC50 of 0.02 µM.
Compound `CC(C)C[C@H]1NC(=O)[C@H](C)N(C)C(=O)[C@H](Cc2ccc(C(=O)O)cc2)NC(=O)[C@H](Cc2ccc(-c3ccccc3)cc2)NC(=O)[C@H](CCc2ccccc2)NC(=O)[C@H](Cc2cccc(C(F)(F)F)c2)NC(=O)[C@H](CC(=O)O)NC(=O)[C@H](Cc2ccc(C(=O)O)cc2)NC(=O)[C@H](CN2CCOCC2)NC(=O)CSC[C@@H](C(=O)N[C@@H](CCN)C(N)=O)NC(=O)[C@H](CNC(=O)CCC(=O)O)NC(=O)[C@H](C(C)C)NC(=O)[C@H](CC2CCCCC2)NC(=O)[C@H](CCN)NC1=O` [Example 5210] ({CH2CO}-[Ala(morpholin-4-yl)][Phe(4-COOH)]D[Phe(3-CF3)][hPhe][Bip][Phe(4-COOH)][NMeA][dL][Dab][Cha]V[Dap](Suc)C[Dab]-NH2; thioether N-14) has an IC50 of 0.14 µM.
Compound `Cc1cccc(C[C@@H]2NC(=O)[C@H](CC(=O)O)NC(=O)[C@H](Cc3ccc(OCC(=O)O)cc3)NC(=O)[C@H](CN3CCOCC3)NC(=O)CSC[C@@H](C(=O)N[C@@H](CCN)C(N)=O)NC(=O)[C@H](CCCN)NC(=O)[C@H](C(C)C)NC(=O)[C@H](CC3CCCCC3)NC(=O)[C@H](CCN)NC(=O)[C@@H](CC(C)C)NC(=O)[C@H](C)N(C)C(=O)[C@H](CCC(N)=O)NC(=O)[C@H](Cc3ccc(-c4ccccc4)cc3)NC(=O)[C@H](Cc3cccc(-c4ccc(N)nc4)c3)NC2=O)c1` [Example 5103] ({CH2CO}-[Ala(morpholin-4-yl)]Y(Carboxymethyl)D[Phe(3-Me)][X17][Bip]Q[NMeA][dL][Dab][Cha]V[Orn]C[Dab]-NH2; thioether N-14) has an IC50 of 0.38 µM.
Compound `Cc1cccc(C[C@@H]2NC(=O)[C@H](CC(=O)O)NC(=O)[C@H](Cc3ccc(OCC(=O)O)cc3)NC(=O)[C@H](CCc3ccccc3)NC(=O)CSC[C@@H](C(=O)N[C@@H](CCN)C(N)=O)NC(=O)[C@H](CCCN)NC(=O)[C@H](C(C)C)NC(=O)[C@H](CC3CCCCC3)NC(=O)[C@H](CCN)NC(=O)[C@@H](CC(C)C)NC(=O)[C@H](C)N(C)C(=O)[C@H](CCC(N)=O)NC(=O)[C@H](Cc3ccc(-c4ccccc4)cc3)NC(=O)[C@H](Cc3ccc(C(=O)O)cc3)NC2=O)c1` [Example 5265] ({CH2CO}-[hPhe]Y(Carboxymethyl)D[Phe(3-Me)][Phe(4-COOH)][Bip]Q[NMeA][dL][Dab][Cha]V[Orn]C[Dab]-NH2; thioether N-14) has an IC50 of 0.03 µM.
With `CC(=O)Nc1ccc(-c2ccc(C[C@@H]3NC(=O)[C@H](Cc4cccc(C(F)(F)F)c4)NC(=O)[C@H](CC(=O)O)NC(=O)[C@H](Cc4ccc(C(=O)O)cc4)NC(=O)[C@H](Cc4ccc(OCC(=O)O)cc4)NC(=O)CSC[C@@H](C(=O)N[C@@H](CCN)C(N)=O)NC(=O)[C@H](CCC(=O)O)NC(=O)[C@H](C(C)C)NC(=O)[C@H](CC4CCCCC4)NC(=O)[C@H](CCN)NC(=O)[C@@H](CC(C)C)NC(=O)[C@H](C)N(C)C(=O)[C@H](Cc4ccc(OCC(=O)O)cc4)NC(=O)[C@H](Cc4ccc(-c5ccccc5)cc4)NC3=O)cc2)cc1` [Example 5156] ({CH2CO}-Y(Carboxymethyl)[Phe(4-COOH)]D[Phe(3-CF3)][Bip(4'-NHAc)][Bip]Y(Carboxymethyl)[NMeA][dL][Dab][Cha]VEC[Dab]-NH2; thioether N-14) the IC50 was 0.07 µM.
`CC(C)C[C@H]1NC(=O)[C@H](C)N(C)C(=O)[C@H](Cc2ccc(C(=O)O)cc2)NC(=O)[C@H](Cc2ccc(-c3ccccc3)cc2)NC(=O)[C@H](CCc2ccccc2)NC(=O)[C@H](Cc2cccc(C(F)(F)F)c2)NC(=O)[C@H](CC(=O)O)NC(=O)[C@H](Cc2ccc(C(=O)O)cc2)NC(=O)[C@H](CN2CCOCC2)NC(=O)CSC[C@@H](C(=O)N[C@@H](CCN)C(N)=O)NC(=O)[C@H](CNC(=O)CCCC(=O)O)NC(=O)[C@H](C(C)C)NC(=O)[C@H](CC2CCCCC2)NC(=O)[C@H](CCN)NC1=O` [Example 5209] ({CH2CO}-[Ala(morpholin-4-yl)][Phe(4-COOH)]D[Phe(3-CF3)][hPhe][Bip][Phe(4-COOH)][NMeA][dL][Dab][Cha]V[Dap](Glutaryl)C[Dab]-NH2; thioether N-14) showed an IC50 of 0.02 µM.
Compound `Cc1cccc(C[C@@H]2NC(=O)[C@H](CC(=O)O)NC(=O)[C@H](Cc3ccc(OCC(=O)O)cc3)NC(=O)[C@H](Cc3ccccc3F)NC(=O)CSC[C@@H](C(=O)N[C@@H](CCN)C(N)=O)NC(=O)[C@H](CCCN)NC(=O)[C@H](C(C)C)NC(=O)[C@H](CC3CCCCC3)NC(=O)[C@H](CCN)NC(=O)[C@@H](CC(C)C)NC(=O)[C@H](C)N(C)C(=O)[C@H](CCC(N)=O)NC(=O)[C@H](Cc3ccc(-c4ccccc4)cc3)NC(=O)[C@H](Cc3ccc(C(=O)O)cc3)NC2=O)c1` [Example 5293] ({CH2CO}-[Phe(2-F)]Y(Carboxymethyl)D[Phe(3-Me)][Phe(4-COOH)][Bip]Q[NMeA][dL][Dab][Cha]V[Orn]C[Dab]-NH2; thioether N-14) has an IC50 of 0.06 µM.

Same assay, conditions: Jurkat-PD-1 cells, Alexa fluor-647 labeled PD-L1-Ig 177 nM; nM; read-out: CBA Method 3
With `CC(C)C[C@H]1NC(=O)[C@H](C)N(C)C(=O)[C@H](CCC(N)=O)NC(=O)[C@H](Cc2ccc(-c3ccccc3)cc2)NC(=O)[C@H](Cc2ccc(OCC(=O)O)cc2)NC(=O)[C@H](Cc2cccc(C(F)(F)F)c2)NC(=O)[C@H](CC(=O)O)NC(=O)[C@H](CCC(N)=O)NC(=O)[C@H]([C@@H](C)N)NC(=O)CSC[C@@H](C(=O)N[C@@H](CCN)C(N)=O)NC(=O)[C@H](CCCN)NC(=O)[C@H](C(C)C)NC(=O)[C@H](CC2CCCCC2)NC(=O)[C@H](CCN)NC1=O` [Example 5249] ({CH2CO}-[Abu(3R-NH2)]QD[Phe(3-CF3)]Y(Carboxymethyl)[Bip]Q[NMeA][dL][Dab][Cha]V[Orn]C[Dab]-NH2; thioether N-14) the IC50 was 0.0019 µM.
For `Cc1cccc(C[C@@H]2NC(=O)[C@H](CC(=O)O)NC(=O)[C@H](Cc3ccc(OCC(=O)O)cc3)NC(=O)[C@H](C)NC(=O)CSC[C@@H](C(=O)N[C@@H](CCN)C(N)=O)NC(=O)[C@H](CCC(=O)O)NC(=O)[C@H](C(C)C)NC(=O)[C@H](CC3CCCCC3)NC(=O)[C@H](CCN)NC(=O)[C@@H](CC(C)C)NC(=O)[C@H](C)N(C)C(=O)[C@H](Cc3ccc(C(=O)O)cc3)NC(=O)[C@H](Cc3ccc(-c4ccccc4)cc3)NC(=O)[C@H](Cc3ccc(C(=O)O)cc3)NC2=O)c1` [Example 5137] ({CH2CO}-AY(Carboxymethyl)D[Phe(3-Me)][Phe(4-COOH)][Bip][Phe(4-COOH)][NMeA][dL][Dab][Cha]VEC[Dab]-NH2; thioether N-14), the IC50 was 0.0044 µM.
`CC(=O)Nc1ccc(-c2ccc(C[C@@H]3NC(=O)[C@H](Cc4cccc(C(F)(F)F)c4)NC(=O)[C@H](CC(=O)O)NC(=O)[C@H](Cc4ccc(C(=O)O)cc4)NC(=O)[C@H]([C@H](C)N)NC(=O)CSC[C@@H](C(=O)N[C@@H](CCN)C(N)=O)NC(=O)[C@H](CCC(=O)O)NC(=O)[C@H](C(C)C)NC(=O)[C@H](CC4CCCCC4)NC(=O)[C@H](CCN)NC(=O)[C@@H](CC(C)C)NC(=O)[C@H](C)N(C)C(=O)[C@H](Cc4ccc(C(N)=O)cc4)NC(=O)[C@H](Cc4ccc(-c5ccccc5)cc4)NC3=O)cc2)cc1` [Example 5118] ({CH2CO}-[Abu(3S-NH2)][Phe(4-COOH)]D[Phe(3-CF3)][Bip(4'-NHAc)][Bip][Phe(4-CONH2)][NMeA][dL][Dab][Cha]VEC[Dab]-NH2; thioether N-14) was tested, and the IC50 was 0.0017 µM.
With `CC(C)C[C@H]1NC(=O)[C@H](C)N(C)C(=O)[C@H](CCC(N)=O)NC(=O)[C@H](Cc2ccc(-c3ccccc3)cc2)NC(=O)[C@H](CCc2ccccc2)NC(=O)[C@H](Cc2cccc(C(F)(F)F)c2)NC(=O)[C@H](CC(=O)O)NC(=O)[C@H](Cc2ccc(OCC(=O)O)cc2)NC(=O)[C@H](CN2CCOCC2)NC(=O)CSC[C@@H](C(=O)N[C@@H](CCN)C(N)=O)NC(=O)[C@H](CCCN)NC(=O)[C@H](C(C)C)NC(=O)[C@H](CC2CCCCC2)NC(=O)[C@H](CCN)NC1=O` [Example 5216] ({CH2CO}-[Ala(morpholin-4-yl)]Y(Carboxymethyl)D[Phe(3-CF3)][hPhe][Bip]Q[NMeA][dL][Dab][Cha]V[Orn]C[Dab]-NH2; thioether N-14) the IC50 was 0.006 µM.
